Test results taken from patent US5373090A, “Aprotinin analogues and a process for the production thereof” (Novo Nordisk A/S, priority 1988, dated 1994).

Key:
trypsin = target: T1, trypsin (Bos taurus, UniProt P00760); details: known analogues, as claimed in prior art; cited from earlier work
T1 construct: gene PRSS1
T1 sequence (P00760 24-246): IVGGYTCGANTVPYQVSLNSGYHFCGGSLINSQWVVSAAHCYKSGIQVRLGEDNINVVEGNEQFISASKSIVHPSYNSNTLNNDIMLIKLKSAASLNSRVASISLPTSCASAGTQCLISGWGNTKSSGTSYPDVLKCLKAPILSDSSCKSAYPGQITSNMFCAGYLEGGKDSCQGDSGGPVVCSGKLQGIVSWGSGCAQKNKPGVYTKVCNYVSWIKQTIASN

kallikrein = details: known analogues, as claimed in prior art; cited from earlier work
granulocyte elastase = target: T2, granulocyte elastase (Homo sapiens, UniProt P08246); details: known analogues, as claimed in prior art; cited from earlier work
T2 sequence (P08246 30-267): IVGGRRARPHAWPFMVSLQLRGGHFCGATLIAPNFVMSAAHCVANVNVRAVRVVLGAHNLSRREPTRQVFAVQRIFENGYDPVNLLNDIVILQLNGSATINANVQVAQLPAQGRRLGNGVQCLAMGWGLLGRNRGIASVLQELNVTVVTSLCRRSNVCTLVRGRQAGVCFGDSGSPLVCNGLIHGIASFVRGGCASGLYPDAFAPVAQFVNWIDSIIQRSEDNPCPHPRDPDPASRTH

Human plasma kallikrein = target: T3, Human plasma kallikrein (Homo sapiens, UniProt P03952); experiment: Inhibition of amidolytic activity of human plasma kallikrein (substrate S2302); assay type: biochemical
T3 construct: purchased Sigma (St. Louis, Mo.)
T3 sequence (P03952 391-638 limits assumed): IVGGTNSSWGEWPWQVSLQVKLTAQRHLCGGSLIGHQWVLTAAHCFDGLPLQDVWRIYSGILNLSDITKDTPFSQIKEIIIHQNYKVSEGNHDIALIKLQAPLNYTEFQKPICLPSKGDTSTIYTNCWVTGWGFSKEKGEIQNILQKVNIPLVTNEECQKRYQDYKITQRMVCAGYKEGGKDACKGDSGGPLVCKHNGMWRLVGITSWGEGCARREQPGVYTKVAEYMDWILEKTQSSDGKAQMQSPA
T3 sequence (P03952 20-390 partner limits assumed): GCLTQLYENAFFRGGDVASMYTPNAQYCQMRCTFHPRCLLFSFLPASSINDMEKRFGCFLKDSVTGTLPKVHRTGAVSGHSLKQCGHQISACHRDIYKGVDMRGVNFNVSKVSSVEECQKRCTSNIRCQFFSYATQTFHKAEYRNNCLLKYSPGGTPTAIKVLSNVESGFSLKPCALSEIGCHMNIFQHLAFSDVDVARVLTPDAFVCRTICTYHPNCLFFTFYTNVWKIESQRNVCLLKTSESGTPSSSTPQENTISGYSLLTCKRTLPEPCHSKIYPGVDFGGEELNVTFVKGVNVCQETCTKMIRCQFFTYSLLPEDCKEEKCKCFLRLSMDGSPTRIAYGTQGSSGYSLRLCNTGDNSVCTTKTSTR
Description: (§1) The concentration was calculated using E280 nm=8.3 and Mr =6500. Human plasma kallikrein was obtained from Sigma (St. Louis, Mo.), bovine factor Xa was purified according to (H. Nobukazu et al. J.Biochem. 97 (1985)1347-1355), human factor IIa (thrombin) was a gift from Dr. W. Lawson (New York State Dept. of Health, Albany, N.Y.), recombinant human factor VIIa was from NOVO (Bagsvaerd, Denmark) and recombinant human protein Ca was from ZymoGenetics, Inc. (Seattle, Wash.). Substrate S 2302 (H-D-Pro-Phe-Arg-p-nitroanilide) substrate S2238 (H-D-Phe-Pip-Arg-p-nitroanilide) and substrate S2366 (Glu-Pro-Arg-p-nitroanilide) were from Kabi (Stockholm, Sweden). Substrate FXa-1 (methoxycarbonyl DCH-Gly-Arg-p-nitroanilide) was from NycoMed (Oslo, Norway). The experiments were performed in 100 mM NaCl, 50 mM Tris-HCl 0.01% Tween80, pH 7.4 at 25° C.
Substrate S 2302 (0.6 mM) was added to a final volume of 300 μand the rate of nitroaniline generation was measured at 405 nm by means of a Micro ELISA® Autoreader MR 580 from Dynatech Laboratories. The rate is proportional to the concentration of free enzyme.

[1] = target: T4, human factor IIa (thrombin) (Homo sapiens, UniProt P00734); experiment: Inhibition of amidolytic activity of factor IIa (substrate S2238); assay type: biochemical; details: 1.0 μM aprotinin analogue
T4 construct: human factor IIa (thrombin) was a gift from Dr. W. Lawson; gift from Dr. W. Lawson (New York State Dept. of Health, Albany, N.Y.)
Description: as §1
(§2) Substrate S 2302 (0.6 mM) was added to a final volume of 300 μand the rate of nitroaniline generation was measured at 405 nm by means of a Micro ELISA® Autoreader MR 580 from Dynatech Laboratories. […]
(§3) The analogues were also tested for inhibition of the amidolytic activity of the serine proteases: bovine factor Xa, human factor IIa, human recombinant factor VIIa and human recombinant protein Ca. […] Finally the analogues were analysed for an effect on the coagulation factors of human plasma by means of two clotting tests. […]

[2] = target: T5, recombinant human factor VIIa (Homo sapiens, UniProt P08709); experiment: Inhibition of amidolytic activity of factor VIIa; assay type: biochemical; details: 1.0 μM aprotinin analogue
T5 construct: recombinant human factor VIIa was from NOVO (Bagsvaerd, Denmark)
T5 sequence (P08709 213-466 limits assumed): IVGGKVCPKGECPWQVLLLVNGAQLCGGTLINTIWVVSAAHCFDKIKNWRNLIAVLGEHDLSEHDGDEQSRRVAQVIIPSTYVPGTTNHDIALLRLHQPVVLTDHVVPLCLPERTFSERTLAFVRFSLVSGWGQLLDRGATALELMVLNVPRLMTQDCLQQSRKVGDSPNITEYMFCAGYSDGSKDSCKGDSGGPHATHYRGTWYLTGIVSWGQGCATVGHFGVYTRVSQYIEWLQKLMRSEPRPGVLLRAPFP
T5 sequence (P08709 61-212 partner limits assumed): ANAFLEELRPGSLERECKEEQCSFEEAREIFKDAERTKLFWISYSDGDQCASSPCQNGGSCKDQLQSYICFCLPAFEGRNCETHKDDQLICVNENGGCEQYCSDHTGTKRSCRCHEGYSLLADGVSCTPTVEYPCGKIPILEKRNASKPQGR
Description: as §1, §2, §3

bovine factor Xa = target: T6, bovine factor Xa (Bos taurus, UniProt P00743); experiment: Inhibition of amidolytic activity of factor Xa (substrate FXa-1); assay type: biochemical; details: 1.0 μM aprotinin analogue; substrate FXa1
T6 construct: bovine factor Xa was purified according to (H. Nobukazu et al. J.Biochem. 97 (1985)1347-1355); from tissue; bovine plasma inferred
T6 sequence (P00743 234-492 limits assumed): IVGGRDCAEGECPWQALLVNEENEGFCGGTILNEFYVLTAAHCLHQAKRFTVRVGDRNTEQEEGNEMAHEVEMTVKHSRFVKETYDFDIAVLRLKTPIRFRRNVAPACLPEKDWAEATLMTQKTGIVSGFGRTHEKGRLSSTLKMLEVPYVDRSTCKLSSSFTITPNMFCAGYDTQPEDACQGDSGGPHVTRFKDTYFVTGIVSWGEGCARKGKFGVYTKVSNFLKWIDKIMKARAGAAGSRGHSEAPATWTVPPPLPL
T6 sequence (P00743 41-180 partner limits assumed): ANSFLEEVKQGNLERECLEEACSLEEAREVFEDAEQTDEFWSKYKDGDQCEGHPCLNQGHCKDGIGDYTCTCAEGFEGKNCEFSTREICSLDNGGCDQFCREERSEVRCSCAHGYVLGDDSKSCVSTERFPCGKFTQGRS
Description: as §1, §2, §3

[3] = target: T7, recombinant human protein Ca (Homo sapiens, UniProt P04070); experiment: Inhibition of amidolytic activity of protein Ca (substrate S2366); assay type: biochemical; details: graphical Dixon method, read-out: Ki, amidolytic activity, Prot. Ca
T7 construct: purchased ZymoGenetics, Inc. (Seattle, Wash.)
T7 sequence (P04070 212-461 limits assumed): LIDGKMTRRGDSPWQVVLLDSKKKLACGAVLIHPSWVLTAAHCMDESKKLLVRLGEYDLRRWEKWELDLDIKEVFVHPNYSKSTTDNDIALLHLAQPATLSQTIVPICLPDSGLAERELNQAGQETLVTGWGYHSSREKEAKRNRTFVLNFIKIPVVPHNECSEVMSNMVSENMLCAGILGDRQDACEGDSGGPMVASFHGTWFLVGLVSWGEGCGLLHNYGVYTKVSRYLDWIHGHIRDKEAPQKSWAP
T7 sequence (P04070 43-197 partner limits assumed): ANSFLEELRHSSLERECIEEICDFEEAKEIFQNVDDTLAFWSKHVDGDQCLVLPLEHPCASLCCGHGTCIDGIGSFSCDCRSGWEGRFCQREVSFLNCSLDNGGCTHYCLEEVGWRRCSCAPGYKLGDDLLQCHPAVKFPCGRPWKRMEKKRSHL
Description: as §1, §2, §3

[4] = test system: coagulation factors of human plasma; experiment: Clotting test, prothrombin time (PTT); assay type: biochemical; details: 1.0 μM aprotinin analogue
Description: (§4) The analogues were also tested for inhibition of the amidolytic activity of the serine proteases: bovine factor Xa, human factor IIa, human recombinant factor VIIa and human recombinant protein Ca. The experiments were performed essentially as described for plasma kallikrein only appropriate substrates were used. Finally the analogues were analysed for an effect on the coagulation factors of human plasma by means of two clotting tests. These tests, the prothrombin time (PTT) and the activated thromboplastin time (APTT) were performed with General Diagnostics® reagents from Organon (Durham, N.C.) according to the directions given by the manufacturer.

[5] = test system: coagulation factors of human plasma; experiment: Clotting test, activated thromboplastin time (APTT); assay type: biochemical; details: 1.0 μM aprotinin analogue
Description: as §4

collagenase = details: known analogues, as claimed in prior art; cited from earlier work

aprotinin(15Gly)
Antitrypsin activity (in words) (trypsin): outstanding antitrypsin activity | Inhibition of kallikrein (in words) (kallikrein): surprisingly inhibits kallikrein

aprotinin(15Ala)
Effect on elastase (in words) (granulocyte elastase): only a weak inhibitory effect on elastase

Aprotinin (bovine pancreatic trypsin inhibitor, BPTI) [Native Aprotinin]
Ki (Human plasma kallikrein; graphical Dixon method, substrate S2302, pH 7.4, 25° C.): 180 nM | Inhibition of plasma kallikrein (in words, FIGS. 5A and 5B) (Human plasma kallikrein; kallikrein 3 nM, aprotinin 0-20 nM, 30 minutes): moderate inhibition | Amidolytic activity of FIIa, inhibition [1]: - | Amidolytic activity of FVIIa, inhibition [2]: - | Amidolytic activity of FXa, inhibition (bovine factor Xa): - | Ki [3]: 400 nM | Clot assays PTT [4]: - | Clot assays APTT [5]: -

aprotinin(15 Val)
Effect on elastase (in words) (granulocyte elastase): relatively high selectivity for granulocyte elastase | Inhibition effect on collagenase (in words) (collagenase): inhibition effect on collagenase
